Results taken from patent US10869924B2, “PD-L1 antagonist combination treatments” (MERCK PATENT GMBH, priority 2015, dated 2020).

Legend:
clear cell aRCC = conditions: cited from earlier work; for median PFS (mPFS): previously untreated patients with clear cell aRCC, axitinib 5 mg BID, single agent
human PBMC = assay: Cytokine release, standard human PBMC in vitro test; format: cell-based
Description: The combination of avelumab plus anti-4-1BB antibody PF-05082566 and anti-OX40 antibody PF-04518600 has been evaluated for cytokine release using the standard human PBMC in vitro test. The cytokine release assay was completed for PF-05082566 alone and in combination with avelumab and PF-04518600.

For `CNC(=O)c1cc(Oc2ccc(NC(=O)Nc3ccc(Cl)c(C(F)(F)F)c3)cc2)ccn1` [sorafenib], the “median PFS (mPFS)” value (clear cell aRCC) is listed as 6.5 months.

For `CNC(=O)c1ccccc1Sc1ccc2c(/C=C/c3ccccn3)n[nH]c2c1` [axitinib, N-methyl-2-[3-((E)-2-pyridin-2-yl-vinyl)-1H-indazol-6-ylsulfanyl]-benzamide], the “stratified hazard ratio (PFS)” value (clear cell aRCC; axitinib vs. sorafenib, 95% CI 0.56, 1.05) is given as 0.77 and the “median PFS (mPFS)” value (clear cell aRCC) is given as 10.1 months.

In the case of “PF-05082566: novel fully human IgG2 monoclonal antibody agonist of 4-1BB”, the cytokine release (human PBMC) was “did not show a significant increase in cytokine release”.
